# Experimental data: US10160747B2, “Compounds and methods for kinase modulation, and indications therefor” (Plexxikon Inc., priority 2016, dated 2018)
# pIC50: −log10 of the molar value.
# What was measured:
# [1] = test system: MOLM-14 F691L (endogenous FLT3 ITD and transfected FLT3 F691L); assay: MOLM-14 F691L cell proliferation assay (CellTiter-Glo); type: cell-based; settings: Homo sapiens, MOLM-14, 72 h; 3 d growth, GMean
# Outline: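 MOLM-14 derivatives carrying D835Y or F691L, selected under escalating AC220, were seeded at 1×10^4 cells/well and exposed to an 8-point 1:3 compound series (1 to 0.00046 μM, 0.2% DMSO final) for three days at 37° C., 5% CO2. CellTiter-Glo luminescence (ATP content) versus concentration gave IC50.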
# [2] = biological target: T1, FLT3-ITD (Homo sapiens, UniProt P36888); assay: FLT3-ITD recombinant enzyme kinase assay (AlphaScreen); type: biochemical; settings: 8 pt; read-out: FLT3_ITD 8 pt: IC50
# T1 sequence (P36888 1-993): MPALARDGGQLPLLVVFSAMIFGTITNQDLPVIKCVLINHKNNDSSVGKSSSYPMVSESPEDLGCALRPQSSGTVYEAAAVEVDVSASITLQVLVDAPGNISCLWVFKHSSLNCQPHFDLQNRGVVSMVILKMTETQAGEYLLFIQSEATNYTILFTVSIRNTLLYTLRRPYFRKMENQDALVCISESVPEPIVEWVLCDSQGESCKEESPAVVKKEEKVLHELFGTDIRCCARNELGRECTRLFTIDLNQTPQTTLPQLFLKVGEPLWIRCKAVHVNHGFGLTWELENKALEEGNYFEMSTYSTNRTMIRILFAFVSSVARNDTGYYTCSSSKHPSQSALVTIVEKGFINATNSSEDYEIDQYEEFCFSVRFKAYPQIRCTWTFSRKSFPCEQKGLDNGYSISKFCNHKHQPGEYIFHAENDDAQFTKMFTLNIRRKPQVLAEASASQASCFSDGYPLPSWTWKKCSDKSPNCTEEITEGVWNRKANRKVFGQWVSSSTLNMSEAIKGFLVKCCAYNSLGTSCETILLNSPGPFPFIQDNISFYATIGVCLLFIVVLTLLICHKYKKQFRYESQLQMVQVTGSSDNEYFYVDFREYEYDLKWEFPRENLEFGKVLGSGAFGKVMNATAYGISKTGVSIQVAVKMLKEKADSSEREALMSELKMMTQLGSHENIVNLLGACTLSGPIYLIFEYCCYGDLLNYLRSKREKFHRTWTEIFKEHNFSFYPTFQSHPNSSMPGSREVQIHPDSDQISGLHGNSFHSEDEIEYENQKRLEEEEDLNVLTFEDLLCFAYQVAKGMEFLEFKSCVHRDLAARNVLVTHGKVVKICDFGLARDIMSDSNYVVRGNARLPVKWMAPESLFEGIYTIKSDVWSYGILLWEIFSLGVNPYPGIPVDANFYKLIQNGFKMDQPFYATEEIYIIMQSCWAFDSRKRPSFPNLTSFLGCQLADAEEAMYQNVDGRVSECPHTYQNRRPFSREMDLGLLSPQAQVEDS
# Outline: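 Recombinant kinase phosphorylates 30 nM biotinylated poly(Glu4-Tyr) peptide; ATP is 10 μM for FLT3-ITD and FLT3-D835Y, 100 μM for c-KIT. Phosphotyrosine detected by AlphaScreen (streptavidin donor, PY20 acceptor beads, 10 μg/mL), 580 nm signal after 680 nm excitation; IC50 from signal decrease.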
Structure (SMILES),pIC50 [1],pIC50 [2]
"CCn1cc(Nc2ncc(-c3ccc(CC(=O)Nc4cncc(C(F)(F)F)c4)c(F)c3)cn2)cn1 [Compound P-0258, 2-[4-[2-[(1-ethylpyrazol-4-yl)amino]pyrimidin-5-yl]-2-fluoro-phenyl]-N-[5-(trifluoromethyl)-3-pyridyl]acetamide]",5.00 to 10.00,5.00 to 10.00
"CCn1cc(Nc2ncc(-c3ccc(CC(=O)Nc4cnc(OC)c(C(F)(F)F)c4)c(F)c3)cn2)cn1 [Compound P-0259, 2-[4-[2-[(1-ethylpyrazol-4-yl)amino]pyrimidin-5-yl]-2-fluoro-phenyl]-N-[6-methoxy-5-(trifluoromethyl)-3-pyridyl]acetamide]",5.00 to 10.00,5.00 to 10.00
"CCn1cc(Nc2ncc(-c3ccc(CC(=O)Nc4cnc(Cl)c(C(F)(F)F)c4)c(F)c3)cn2)cn1 [Compound P-0260, N-[6-chloro-5-(trifluoromethyl)-3-pyridyl]-2-[4-[2-[(1-ethylpyrazol-4-yl)amino]pyrimidin-5-yl]-2-fluoro-phenyl]acetamide]",5.00 to 10.00,5.00 to 10.00
"CCn1cc(Nc2ncc(-c3ccc(CC(=O)Nc4cnc(C)c(C(F)(F)F)c4)c(F)c3)cn2)cn1 [Compound P-0261, 2-[4-[2-[(1-ethylpyrazol-4-yl)amino]pyrimidin-5-yl]-2-fluoro-phenyl]-N-[6-methyl-5-(trifluoromethyl)-3-pyridyl]acetamide]",5.00 to 10.00,5.00 to 10.00
"COCCn1cc(Nc2ncc(-c3ccc(CC(=O)Nc4cnc(OC)c(C(F)(F)F)c4)c(F)c3)cn2)cn1 [Compound P-0265, 2-[2-fluoro-4-[2-[[1-(2-methoxyethyl)pyrazol-4-yl]amino]pyrimidin-5-yl]phenyl]-N-[6-methoxy-5-(trifluoromethyl)-3-pyridyl]acetamide]",5.00 to 10.00,5.00 to 10.00
"COCCn1cc(Nc2ncc(-c3ccc(CC(=O)Nc4cnc(Cl)c(C(F)(F)F)c4)c(F)c3)cn2)cn1 [Compound P-0266, N-[6-chloro-5-(trifluoromethyl)-3-pyridyl]-2-[2-fluoro-4-[2-[[1-(2-methoxyethyl)pyrazol-4-yl]amino]pyrimidin-5-yl]phenyl]acetamide]",5.00 to 10.00,5.00 to 10.00
"COCCn1cc(Nc2ncc(-c3ccc(CC(=O)Nc4cncc(C(F)(F)F)c4)c(F)c3)cn2)cn1 [Compound P-0267, 2-[2-fluoro-4-[2-[[1-(2-methoxyethyl)pyrazol-4-yl]amino]pyrimidin-5-yl]phenyl]-N-[5-(trifluoromethyl)-3-pyridyl]acetamide]",5.00 to 10.00,5.00 to 10.00
"COCCn1cc(Nc2ncc(-c3ccc(CC(=O)Nc4ccc(C(F)(F)F)nc4)c(F)c3)cn2)cn1 [Compound P-0268, 2-[2-fluoro-4-[2-[[1-(2-methoxyethyl)pyrazol-4-yl]amino]pyrimidin-5-yl]phenyl]-N-[6-(trifluoromethyl)-3-pyridyl]acetamide]",5.00 to 10.00,5.00 to 10.00
"COCCn1cc(Nc2ncc(-c3ccc(CC(=O)Nc4ccc(C(F)(F)F)cn4)c(F)c3)cn2)cn1 [Compound P-0269, 2-[2-fluoro-4-[2-[[1-(2-methoxyethyl)pyrazol-4-yl]amino]pyrimidin-5-yl]phenyl]-N-[5-(trifluoromethyl)-2-pyridyl]acetamide]",5.00 to 10.00,5.00 to 10.00
"COCCn1cc(Nc2ncc(-c3ccc(CC(=O)Nc4cc(C(F)(F)F)ccn4)c(F)c3)cn2)cn1 [Compound P-0270, 2-[2-fluoro-4-[2-[[1-(2-methoxyethyl)pyrazol-4-yl]amino]pyrimidin-5-yl]phenyl]-N-[4-(trifluoromethyl)-2-pyridyl]acetamide]",5.00 to 10.00,5.00 to 10.00
"COCCn1cc(Nc2ncc(-c3ccc(CC(=O)Nc4cnc(OC)c(C(F)(F)F)c4)cc3)cn2)cn1 [Compound P-0271, 2-[4-[2-[[1-(2-methoxyethyl)pyrazol-4-yl]amino]pyrimidin-5-yl]phenyl]-N-[6-methoxy-5-(trifluoromethyl)-3-pyridyl]acetamide]",5.00 to 10.00,5.00 to 10.00
"COCCn1cc(Nc2ncc(-c3ccc(CC(=O)Nc4ccc(C(F)(F)F)nc4)cc3)cn2)cn1 [Compound P-0273, 2-[4-[2-[[1-(2-methoxyethyl)pyrazol-4-yl]amino]pyrimidin-5-yl]phenyl]-N-[6-(trifluoromethyl)-3-pyridyl]acetamide]",5.00 to 10.00,5.00 to 10.00
"COCCn1cc(Nc2ncc(-c3ccc(CC(=O)Nc4ccc(C(F)(F)F)cn4)cc3)cn2)cn1 [Compound P-0274, 2-[4-[2-[[1-(2-methoxyethyl)pyrazol-4-yl]amino]pyrimidin-5-yl]phenyl]-N-[5-(trifluoromethyl)-2-pyridyl]acetamide]",5.00 to 10.00,5.00 to 10.00
